Our source for the relative viability values is the supplement of paper PMC10307832.

Compound in this experiment: CN(C)C[C@@H]1CCn2cc(c3ccccc32)C2=C(C(=O)NC2=O)c2cn(c3ccccc23)CCO1 [Ruboxistaurin] + Cc1nc(NC(=O)N2CCC[C@H]2C(N)=O)sc1-c1ccnc(C(C)(C)C(F)(F)F)c1 [Alpelisib] (partner 2 µM)
Briefly: relative viability (nuclei count vs DMSO), 5 days (fraction); higher = more cells survive. A digest of the protocol: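 A single step with final 0.05% Triton X-100, 1% formaldehyde and 1 ug/ml Hoechst fixed the cells and stained nuclei 5 days after treatment. Lung cancer cell lines in 1536-well plates had been treated by pin tool the day after seeding with one drug alone or a fixed anchor-drug dose plus five library-drug doses (not always all listed) in √10 steps, and nuclei were counted on 4× images. Relative viability is the ratio of nuclei in treated wells to nuclei in vehicle wells, taken as the median of duplicate plates.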

Take NCI-H838: the relative viability runs as follows: (first compound 0.08 µM) 1.13; (first compound 0.8 µM) 0.903; (first compound 2.53 µM) 0.966; (first compound 8 µM) 0.852.

NCI-H3122: the relative viability by setting is: (first compound 0.08 µM) 0.837; (first compound 0.8 µM) 0.562; (first compound 2.53 µM) 0.737; (first compound 8 µM) 0.587.

For SK-MES-1, the relative viability came to 1 (first compound 0.08 µM), 0.782 (first compound 0.8 µM), 0.837 (first compound 2.53 µM) and 0.801 (first compound 8 µM).

Turning to NCI-H1944, the relative viability is, setting by setting: (first compound 0.08 µM) 0.866; (first compound 0.8 µM) 0.722; (first compound 2.53 µM) 0.716; (first compound 8 µM) 0.738.

As for LK-2, the relative viability (first compound 0.08 µM) is 1.19, the relative viability (first compound 0.8 µM) turned out to be 1.01, the relative viability (first compound 2.53 µM) stood at 1 and the relative viability (first compound 8 µM) worked out at 0.577.

With PC-3 [JPC-3], the relative viability by setting is: (first compound 0.08 µM) 1.02; (first compound 0.8 µM) 0.956; (first compound 2.53 µM) 1.01; (first compound 8 µM) 0.976.

As for COR-L23, the relative viability (first compound 0.08 µM) is 0.804, the relative viability (first compound 0.8 µM) amounted to 0.814, the relative viability (first compound 2.53 µM) stood at 0.73 and the relative viability (first compound 8 µM) was determined as 0.695.

As for NCI-H1355, the relative viability runs as follows: (first compound 0.08 µM) 0.868; (first compound 0.8 µM) 0.68; (first compound 2.53 µM) 0.827; (first compound 8 µM) 0.667.

In the case of NCI-H460, the relative viability (first compound 0.08 µM) amounted to 0.398, the relative viability (first compound 0.8 µM) was 0.324, the relative viability (first compound 2.53 µM) came out at 0.26 and the relative viability (first compound 8 µM) was determined as 0.137.

Turning to NCI-H1993, the relative viability by setting is: (first compound 0.08 µM) 0.615; (first compound 0.8 µM) 0.664; (first compound 2.53 µM) 0.664; (first compound 8 µM) 0.628.

As for HCC-15, the relative viability came out at 0.867 (first compound 0.08 µM), 0.714 (first compound 0.8 µM), 0.909 (first compound 2.53 µM) and 0.743 (first compound 8 µM).

With NCI-H23, the relative viability came to 0.831 (first compound 0.08 µM), 0.617 (first compound 0.8 µM), 0.71 (first compound 2.53 µM) and 0.686 (first compound 8 µM).

Turning to NCI-H1395, the relative viability by setting is: (first compound 0.08 µM) 1.06; (first compound 0.8 µM) 0.944; (first compound 2.53 µM) 1.12; (first compound 8 µM) 0.931.

On to NCI-H1666, for which the relative viability is, setting by setting: (first compound 0.08 µM) 1.12; (first compound 0.8 µM) 0.809; (first compound 2.53 µM) 0.789; (first compound 8 µM) 0.585.

With NCI-H2405, the relative viability is, setting by setting: (first compound 0.08 µM) 0.936; (first compound 0.8 µM) 0.681; (first compound 2.53 µM) 0.775; (first compound 8 µM) 0.835.

In the case of NCI-H2009, the relative viability reads like this: (first compound 0.08 µM) 1.21; (first compound 0.8 µM) 1.14; (first compound 2.53 µM) 1.18; (first compound 8 µM) 1.14.

In the case of HCC-78, the relative viability was found to be 0.358 (first compound 0.08 µM), 0.311 (first compound 0.8 µM), 0.327 (first compound 2.53 µM) and 0.286 (first compound 8 µM).

Regarding NCI-H2170, the relative viability (first compound 0.08 µM) is 0.82, the relative viability (first compound 0.8 µM) is 0.716, the relative viability (first compound 2.53 µM) stood at 0.823 and the relative viability (first compound 8 µM) came to 0.694.

For NCI-H1793, the relative viability reads like this: (first compound 0.08 µM) 0.939; (first compound 0.8 µM) 0.517; (first compound 2.53 µM) 0.615; (first compound 8 µM) 0.817.

Consider HCC-366, for which the relative viability (first compound 0.08 µM) amounted to 0.536, the relative viability (first compound 0.8 µM) amounted to 0.326, the relative viability (first compound 2.53 µM) came out at 0.373 and the relative viability (first compound 8 µM) stood at 0.226.

As to NCI-H1651, the relative viability came to 1.04 (first compound 0.08 µM), 0.755 (first compound 0.8 µM), 0.974 (first compound 2.53 µM) and 0.797 (first compound 8 µM).

LC-2-ad: the relative viability is, setting by setting: (first compound 0.08 µM) 0.779; (first compound 0.8 µM) 0.785; (first compound 2.53 µM) 0.846; (first compound 8 µM) 0.783.

As for HCC-827, the relative viability by setting is: (first compound 0.08 µM) 1.13; (first compound 0.8 µM) 1.02; (first compound 2.53 µM) 0.984; (first compound 8 µM) 0.969.

On to SK-LU-1, for which the relative viability reads like this: (first compound 0.08 µM) 1.07; (first compound 0.8 µM) 0.81; (first compound 2.53 µM) 0.921; (first compound 8 µM) 0.782.

Turning to ABC-1, the relative viability by setting is: (first compound 0.08 µM) 1.35; (first compound 0.8 µM) 1.13; (first compound 2.53 µM) 1.07; (first compound 8 µM) 0.839.

NCI-H1703: the relative viability is, setting by setting: (first compound 0.08 µM) 0.356; (first compound 0.8 µM) 0.323; (first compound 2.53 µM) 0.366; (first compound 8 µM) 0.308.

In the case of COR-L 105, the relative viability by setting is: (first compound 0.08 µM) 1.17; (first compound 0.8 µM) 1.09; (first compound 2.53 µM) 0.911; (first compound 8 µM) 0.706.

LOU-NH91: the relative viability amounted to 0.846 (first compound 0.08 µM), 0.666 (first compound 0.8 µM), 0.705 (first compound 2.53 µM) and 0.676 (first compound 8 µM).

Take NCI-H661: the relative viability (first compound 0.08 µM) worked out at 0.982, the relative viability (first compound 0.8 µM) was 0.696, the relative viability (first compound 2.53 µM) stood at 0.902 and the relative viability (first compound 8 µM) was found to be 0.567.

As for LU99A, the relative viability reads like this: (first compound 0.08 µM) 0.552; (first compound 0.8 µM) 0.48; (first compound 2.53 µM) 0.45; (first compound 8 µM) 0.297.

As to SW 1573, the relative viability amounted to 0.752 (first compound 0.08 µM), 0.688 (first compound 0.8 µM), 0.72 (first compound 2.53 µM) and 0.706 (first compound 8 µM).

For the cell line HOP-62, the relative viability was found to be 0.932 (first compound 0.08 µM), 1.08 (first compound 0.8 µM), 0.992 (first compound 2.53 µM) and 1 (first compound 8 µM).

Regarding UMC-11, the relative viability by setting is: (first compound 0.08 µM) 0.966; (first compound 0.8 µM) 0.896; (first compound 2.53 µM) 0.95; (first compound 8 µM) 0.743.

Turning to LCLC-103H, the relative viability is 0.99 (first compound 0.08 µM), 0.802 (first compound 0.8 µM), 0.826 (first compound 2.53 µM) and 0.862 (first compound 8 µM).

As to NCI-H1734, the relative viability (first compound 0.08 µM) is 0.768, the relative viability (first compound 0.8 µM) stood at 0.641, the relative viability (first compound 2.53 µM) was 0.663 and the relative viability (first compound 8 µM) was 0.57.
